Legend:
patients with PNH [1] = details: in vivo
Protocol: (§1) Pharmacokinetics and pharmacodynamics were also assessed, including change from baseline in percentage of PNH Type II + III RBCs at week 16, and change from baseline in percentage of PNH Type II + III RBCs opsonized with C3 at week 16. Incidence and severity of treatment-emergent adverse events (TEAEs), incidence of thromboembolic events, changes from baseline in laboratory parameters, and changes from baseline in electrocardiogram (ECG) parameters were also assessed.
(§2) The primary endpoint was assessed on ITT set (included all subjects who were randomized), and change from Baseline to Week 16 in Hb level was measured. […] Safety Analysis was conducted in the safety set (which included all subjects who were randomized and received at least 1 dose of monotherapy Study Drug).
(§3) Subjects were divided into various sets. The Run-in Set included all subjects who received at least one dose of APL-2. The Intent-to-Treat (ITT) Set included all subjects who were randomized. The analyses using this set was based upon the randomized treatment group allocated. The Safety Set included all subjects who were randomized and received at least 1 dose of monotherapy Study Drug. This set was used for safety analyses. The analyses using this set were based upon the actual treatment received. The Modified ITT (mITT) Set included all subjects in the ITT set who received at least one dose of monotherapy beyond their Week 4 after randomization in the Randomized Controlled Period. The analyses using this set were based upon the randomized treatment group allocated. […] Subjects were required to receive their randomized treatment to be included in the set and so analyses using this set were by default based upon the actual treatment group allocated. The Completer Set consisted of all subjects in the ITT set who completed the Week 16 efficacy assessment for the study. The analyses using this set were based upon the randomized treatment group allocated.

patients with PNH [2] = assay: PEGASUS safety, 16-week randomized controlled period
Protocol: as §1, §2, §3

patients with PNH [3] = assay: PEGASUS 48-week efficacy results (open-label period); assay type: in vivo, human
Protocol: Day 1 to Week 16 was defined as the Randomized Controlled Period, over which endpoints were assessed. After completion of the Randomized Controlled Period (the end of Week 16), all subjects continue into a 32-week Open-Label Study Drug Period in which all subjects receive twice-weekly doses of Study Drug (1,080 mg). During this period, subjects return to the clinical site on Weeks 17, 18, 20, 22 and 24 and every 4 weeks, thereafter, until Week 48 for efficacy and safety assessments.

patients with PNH [4] = assay: PEGASUS quality of life assessments (LASA, EORTC QLQ-C30); assay type: in vivo, human
Protocol: QoL assessments were Linear Analog Scale Assessment (LASA) and the European Organisation for Research and Treatment of Cancer Quality of Life Questionnaire-Core 30 Scale (EORTC QLQ-C30) scores. Change from baseline (CFB) to week 16 was analyzed using a mixed model for repeated measures. The LASA consists of 3 sections asking respondents to rate their perceived level of functioning and contains specific domains for activity level, ability to carry out daily activities, and overall QoL. Each section of the LASA is scored from low of 0 to high of 100 and asks patients to rate different aspects of their life over the past week; section 1 asks patients to rate their energy level, section 2 their ability to do daily activities, section 3 their overall quality of life. Scores for the 3 individual components of the scale and the combined score were included in the analysis. The EORTC contains 30 questions comprising 5 functional scale scores and individual items; it asks patients to answer 28 questions on a scale of 1 (“not at all”) to 4 (“very much”) that generally focus on the past week of their life. An additional 2 questions are rated on a scale of 1 (“very poor”) to 7 (“excellent”) for overall health and quality of life over the past week.

[5] = 16-week randomized, controlled treatment period
[6] = change from baseline at week 16, ITT
[7] = change from baseline at week 16, ITT, listed as Pegcetacoplan
[8] = week 16, ITT, negative = improvement

Poly(oxy-1,2-ethanediyl), α-hydro-ω-hydroxy-, 15,15ʹ -diester with N-acetyl-L-isoleucyl-L-cysteinyl-L-valyl-1-methyl-L-tryptophyl-L-glutaminyl-L-α-aspartyl-L-tryptophylglycyl-L-alanyl-L-histidyl-L-arginyl-L-cysteinyl-L-threonyl-2-[2-(2-aminoethoxy)ethoxy]acetyl-N^6-carboxy-L-lysinamide cyclic (2-->12)-(disulfide) [pegcetacoplan]
All Infections (patients with PNH [1]): 12 (29.3) n(%) | Sepsis (patients with PNH [1]): 0 n(%) | LDH increase in subjects discontinuing due to hemolysis (patients with PNH [2]; 3 subjects of the pegcetacoplan group): 3-11 × ULN | hemolysis (adverse event) (patients with PNH [2]; 16-week period, four patients pegcetacoplan, nine patients eculizumab): 9.8% | patients who experienced a serious adverse event (patients with PNH [2]; 16-week period, seven of 41 pegcetacoplan, 6 of 39 eculizumab): 17.1% | Abdominal Pain (adverse event) (patients with PNH [2]; 16-week randomized period): 5 (12.2) n(%) | Any TEAE (patients with PNH [2]; 16-week randomized period): 36 (87.8) n(%) | Back Pain (adverse event) (patients with PNH [2]; 16-week randomized period): 3 (7.3) n(%) | Diarrhea (adverse event) (patients with PNH [2]; 16-week randomized period): 9 (22.0) n(%) | Discontinuations due to AE (patients with PNH [2]; 16-week randomized period): 3 (7.3) n(%) | Dizziness (adverse event) (patients with PNH [2]; 16-week randomized period): 1 (2.4) n(%) | Headache (adverse event) (patients with PNH [2]; 16-week randomized period): 3 (7.3) n(%) | Meningitis (patients with PNH [2]; 16-week randomized period): 0 n(%) | Serious AE (patients with PNH [2]; 16-week randomized period): 7 (17.1) n(%) | cases of meningitis (patients with PNH [2]; 16-week randomized period): No cases | deaths (patients with PNH [2]; 16-week randomized period): no deaths | fatigue (adverse event) (patients with PNH [2]; 16-week randomized period): 2 (4.9) n(%) | hemolysis (adverse event) (patients with PNH [2]; 16-week randomized period): 4 (9.8) n(%) | injection site reactions (patients with PNH [2]; 16-week randomized period): 15 (35.6) n(%) | tolerability (patients with PNH [2]; 16-week randomized period): generally well tolerated | diarrhea (patients with PNH [2]; [5]): 22.0% | fatigue (adverse event) (patients with PNH [2]; [5]): 4.9% | headache (patients with PNH [2]; [5]): 7.3% | injection site reactions (patients with PNH [2]; [5]): 36.6% | Adverse Events as primary reason for withdrawal from study treatment (all reported as hemolysis) (patients with PNH [2]; through week 16): 3 (7.3) n (%) | hemoglobin, mean improvement from baseline (patients with PNH [3]; Week 48): 2.7 g/dL | patients who remained transfusion free (patients with PNH [3]; throughout the 48-week study): 73% | hemoglobin, mean increase from baseline as stated in Example 3 (patients with PNH [3]; week 16): 2.7 g/dL | Appetite loss, Difference (95% CI) in LS mean, pegcetacoplan vs eculizumab (patients with PNH [4]; [6]): -8.0 (-23.2, 7.3) | Cognitive functioning, Difference (95% CI) in LS mean, pegcetacoplan vs eculizumab (patients with PNH [4]; [6]): 9.6 (-4.5, 23.6) | Constipation, Difference (95% CI) in LS mean, pegcetacoplan vs eculizumab (patients with PNH [4]; [6]): 1.8 (-15.7, 19.3) | Diarrhea, Difference (95% CI) in LS mean, pegcetacoplan vs eculizumab (patients with PNH [4]; [6]): -1.4 (-19.3, 16.5) | Dyspnea, Difference (95% CI) in LS mean, pegcetacoplan vs eculizumab (patients with PNH [4]; [6]): -14.6 | Emotional functioning, Difference (95% CI) in LS mean, pegcetacoplan vs eculizumab (patients with PNH [4]; [6]): 4.1 (-11.6, 19.8) | Fatigue symptom scale, Difference (95% CI) in LS mean, pegcetacoplan vs eculizumab (patients with PNH [4]; [6]): -20.7 | Financial difficulties, Difference (95% CI) in LS mean, pegcetacoplan vs eculizumab (patients with PNH [4]; [6]): -7.4 (-21.8, 7.0) | Global Health Status/QoL, Difference (95% CI) in LS mean, pegcetacoplan vs eculizumab (patients with PNH [4]; [6]): 18.6 (0.1, 37.1) | Insomnia, Difference (95% CI) in LS mean, pegcetacoplan vs eculizumab (patients with PNH [4]; [6]): 0.3 (-15.7, 16.3) | Nausea and vomiting, Difference (95% CI) in LS mean, pegcetacoplan vs eculizumab (patients with PNH [4]; [6]): -0.0 (-8.4, 8.4) | Pain, Difference (95% CI) in LS mean, pegcetacoplan vs eculizumab (patients with PNH [4]; [6]): -2.8 (-20.4, 14.9) | Physical functioning, Difference (95% CI) in LS mean, pegcetacoplan vs eculizumab (patients with PNH [4]; [6]): 12.9 (4.9, 20.9) | Role functioning, Difference (95% CI) in LS mean, pegcetacoplan vs eculizumab (patients with PNH [4]; [6]): 24.4 (8.8, 40.0) | Social functioning, Difference (95% CI) in LS mean, pegcetacoplan vs eculizumab (patients with PNH [4]; [6]): 11.3 (-2.4, 24.9) | LASA score, Difference (95% CI) in LS mean, pegcetacoplan vs eculizumab (patients with PNH [4]; change from baseline at week 16, ITT, censored for transfusion): 59.10 | LASA score, Difference (95% CI) in LS mean, pegcetacoplan vs eculizumab (patients with PNH [4]; change from baseline at week 16, ITT, censored for transfusion, listed as Pegcetacoplan): 59.1 (16.9, 101.3) | Dyspnea, Difference (95% CI) in LS mean, pegcetacoplan vs eculizumab (patients with PNH [4]; [7]): -14.6 (-29.9, 0.8) | Fatigue symptom scale, Difference (95% CI) in LS mean, pegcetacoplan vs eculizumab (patients with PNH [4]; [7]): -20.7 (-35.3, -6.2) | EORTC QLQ-C30 Cognitive functioning, LS mean (SE) change from baseline (patients with PNH [4]; week 16, ITT): 5.8 (3.3) | EORTC QLQ-C30 Emotional functioning, LS mean (SE) change from baseline (patients with PNH [4]; week 16, ITT): 8.0 (3.4) | EORTC QLQ-C30 Global Health Status/QoL, LS mean (SE) change from baseline (patients with PNH [4]; week 16, ITT): 15.9 (3.6) | EORTC QLQ-C30 Physical functioning, LS mean (SE) change from baseline (patients with PNH [4]; week 16, ITT): 16.9 (2.1) | EORTC QLQ-C30 Role functioning, LS mean (SE) change from baseline (patients with PNH [4]; week 16, ITT): 15.4 (3.9) | EORTC QLQ-C30 Social functioning, LS mean (SE) change from baseline (patients with PNH [4]; week 16, ITT): 15.1 (2.9) | LASA score, LS mean (SE) change from baseline (patients with PNH [4]; week 16, ITT, censored for transfusion): 49.4 (10.2) | EORTC QLQ-C30 Appetite loss, LS mean (SE) change from baseline (patients with PNH [4]; [8]): -3.8 (3.4) | EORTC QLQ-C30 Constipation, LS mean (SE) change from baseline (patients with PNH [4]; [8]): 3.0 (3.2) | EORTC QLQ-C30 Diarrhea, LS mean (SE) change from baseline (patients with PNH [4]; [8]): 0.3 (3.7) | EORTC QLQ-C30 Dyspnea, LS mean (SE) change from baseline (patients with PNH [4]; [8]): -20.1 (3.5) | EORTC QLQ-C30 Fatigue symptom scale, LS mean (SE) change from baseline (patients with PNH [4]; [8]): -22.9 (3.3) | EORTC QLQ-C30 Financial difficulties, LS mean (SE) change from baseline (patients with PNH [4]; [8]): -6.8 (3.9) | EORTC QLQ-C30 Insomnia, LS mean (SE) change from baseline (patients with PNH [4]; [8]): -9.2 (4.0) | EORTC QLQ-C30 Nausea and vomiting, LS mean (SE) change from baseline (patients with PNH [4]; [8]): -0.3 (1.6) | EORTC QLQ-C30 Pain, LS mean (SE) change from baseline (patients with PNH [4]; [8]): -0.7 (4.3)

Reference: patent US20230076527A1, “TREATMENT OF PAROXYSMAL NOCTURNAL HEMOGLOBINURIA” (Apellis Pharmaceuticals, Inc., priority 2020, published 2023)
